Values of other authors in patent US20130217743A1, “CANCER PREVENTION AND TREATMENT METHODS BASED ON DIETARY POLYAMINE CONTENT” (CANCER PREVENTION PHARMACEUTICALS, INC., priority 2010, published 2013).

Key:
[1] = system: tumors harboring Ki-ras mutations; settings: AOM-treated rats; reduced from 90%
tumor putrescine levels = settings: rat-tumor model, DFMO infusion
[2] = system: prostoglandin E2 (PGE2) levels in flat mucosa; settings: 300 mg/day, one month
[3] = for mean half-life: in vivo
[4] = human, in vivo

What does the source list for NCCCC(N)(C(=O)O)C(F)F (racemic) [DFMO, 2-(difluoromethyl)-dl-ornithine]?
number of tumors harboring Ki-ras mutations [1]: 36%; decrease in tumor putrescine levels (tumor putrescine levels): 90%

With CC1=C(CC(=O)O)c2cc(F)ccc2/C1=C\c1ccc(S(C)(=O)=O)cc1 [Sulindac sulfone] as the molecule, how does the COX-inhibitory activity (COX) read?
The COX-inhibitory activity was “lacks COX-inhibitory activity”.

For CC(C)Cc1ccc(C(C)C(=O)O)cc1 (centres unmarked) [ibuprofen], which “PGE2 levels in flat mucosa” value [2] is on record?
The value was “significant decrease”.

With CN1C(C(=O)Nc2ccccn2)=C(O)c2ccccc2S1(=O)=O [piroxicam, 4-hydroxy-2-methyl-N-2-pyridyl-2H-1,2-benzothiazine-3-carboxamide 1,1-dioxide] as the molecule, how does the “number of tumors harboring Ki-ras mutations” value [1] read?
The value was 25%.

With CSc1ccc(/C=C2/C(C)=C(CC(=O)O)c3cc(F)ccc32)cc1 [sulfide metabolite] as the molecule, how does the mean half-life [3] read?
Its mean half-life is 16.4 h.

With CC1=C(CC(=O)O)c2cc(F)ccc2/C1=C\c1ccc([S+](C)[O-])cc1 (centres unmarked) [sulindac, (Z)-5-fluoro-2-methyl-1-((4(methylsulfinyl)phenyl)methylene) 1H-indene-3-acetic acid] as the molecule, how does the drug absorbed ([3]; after oral administration) read?
Its drug absorbed is “about 90%”.

What about the “time to peak plasma levels” value ([3]; fasting patients) of the same molecule?
Its value is “about 2 hours”.

And the mean half-life [3]?
Its mean half-life is 7.8 h.

And the “mild gastrointestinal effects, patients” value [4]?
The value was ~20%.

And the “skin rash and pruritus, patients” value [4]?
The value was 5%.
